# According to patent US6436954B1, “Benzoquinolizidine and benzoindolizidine derivatives and therapeutic uses thereof” (priority 1998, dated 2002):
# Key:
# acetylcholinesterase = target: T1, acetylcholinesterase (Rattus norvegicus, UniProt P37136); assay: Acetylcholinesterase activity in rat brain homogenate (Ellman spectrophotometric method); format: biochemical, Wistar rat; details: rat brain enzyme preparation
# T1 construct: Wistar rat brain was homogenized in 10% (w/v) of ice-cold Tris-buffered saline; from tissue; host or cells: Wistar rat brain homogenate, 10,000 g supernatant
# T1 sequence (P37136 32-614): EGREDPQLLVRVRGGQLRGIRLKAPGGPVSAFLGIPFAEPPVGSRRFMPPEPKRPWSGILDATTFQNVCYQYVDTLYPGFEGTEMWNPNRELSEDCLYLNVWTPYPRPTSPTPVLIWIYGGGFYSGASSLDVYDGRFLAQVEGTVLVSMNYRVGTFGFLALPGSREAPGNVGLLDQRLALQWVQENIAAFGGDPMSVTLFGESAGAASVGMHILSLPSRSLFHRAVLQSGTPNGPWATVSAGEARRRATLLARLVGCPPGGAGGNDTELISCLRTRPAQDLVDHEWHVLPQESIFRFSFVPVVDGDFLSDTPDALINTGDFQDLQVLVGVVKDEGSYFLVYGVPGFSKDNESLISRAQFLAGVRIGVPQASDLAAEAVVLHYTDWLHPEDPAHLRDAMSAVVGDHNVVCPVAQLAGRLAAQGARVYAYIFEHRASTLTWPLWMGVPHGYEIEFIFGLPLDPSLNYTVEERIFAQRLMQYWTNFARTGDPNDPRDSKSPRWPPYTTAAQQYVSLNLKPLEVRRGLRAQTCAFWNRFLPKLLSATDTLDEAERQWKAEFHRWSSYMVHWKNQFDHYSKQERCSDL
# Description: Wistar rat brain was homogenized in 10% (w/v) of ice-cold Tris-buffered saline which comprised 10 mM Tris HCl, pH 7.4, 1 mM ethylenediaminetetraacetic acid, 0.9% (w/v) bovine serum albumin. Homogenates were centrifuged at 10,000 g for 10 minutes at 4° C. Supernatants were decanted and stored in aliquots at −70° C. until required.
# Briefly, the assay was carried out at room temperature using 0.1 M phosphate buffer, pH 8.0, containing 0.075 M acetylthiocholine iodide and 0.01 M 5,5-dithio-bis-(2-nitrobenzoic acid) (DTNB). The DTNB was prepared in 0.1 M phosphate buffer, pH 7.0, which contained 0.018 M sodium bicarbonate to ensure stability. The reaction was started by the addition of 100 μg of enzyme preparation to a final assay volume of 3.2 ml, and mixed thoroughly. Progress was monitored spectrophotometrically at 412 nm for a continuous period. A blank was run in conjunction with each assay and differed from the test only in that it contained phosphate buffer in place of acetylthiocholine iodide. AchE was assayed in the presence of ethopropazine, which was prepared in ethanol. […] BCHE was measured in the presence of 10^−5 M 1,5-bis-(4-trimethylammoniophenyl)pentan-3-one dibromide (62C47), a specific acetylcholinesterase inhibitor which was added to a final concentration of 10^−5 M. All solutions were freshly prepared and protected from light. Acetylthiocholine, DTNB, 62C47 and ethopropazine were obtained from Sigma Chemical Co., St. Louis, Mo. All other reagents were of the highest grade available from routine suppliers.
# Results are expressed as mM acetylthiocholine hydrolysed/100 ug protein/min in Table 1. […] To facilitate comparison between compounds requiring different solubilization vehicles, the relevant results are expressed as percent of the control value in Table 2.
# [1] = tested on: scopolamine-impaired passive avoidance learning; assay: Reversal of scopolamine-induced amnesia of a passive-avoidance response; format: in vivo, Wistar rats; details: mean ± SEM (n)
# Description: (b) Reversal of Scopolamine-induced Amnesia of a Passive-avoidance Response.
# Postnatal day 80 male Wistar rats (300-350 g) were obtained from the Biomedical Facility, University College, Dublin. These were housed singly in a 12 h light/dark cycle with food and water available ad libitum. Animals employed for neurobehavioral studies were maintained and handled in the test environment for 3 days prior to the commencement of studies. All experimental procedures were approved by the Review Committee of the Biomedical Facility of University College, Dublin and were carried out by individuals who held the appropriate license issued by the Ministry of Health.
# Animals were trained in a one-trial, step-through, light-dark passive avoidance paradigm. The apparatus consisted of a box measuring 300 mm wide×260 mm deep×270 mm high. The front and top were transparent, allowing observation of behavior inside the apparatus. The box was divided into two compartments, separated by a central shutter which contained a small opening 50 mm wide and 75 mm high. The smaller of the compartments measured 90 mm in width and contained a low power (6 V V) illumination source—the light compartment. The large compartment measured 210 mm in width and was not illuminated. The floor of the training apparatus consisted of a grid of stainless steel bars which could deliver a remotely-controlled, scrambled shock (0.75 mA every 0.5 msec, 5 sec duration) when the animal entered the dark chamber with all four paws. The animals were tested for recall of this inhibitory stimulus prior to sacrifice by placing them into the light compartment and noting their latency to enter the dark compartment. A criterion period of 300 sec was used. The results of this protocol, after administration of saline, scopolamine, test compound, and scopolaine plus test compound, are presented in Table 3.
# [2] = test compound 10 mg/kg + scopolamine 0.8 mg/kg
# [3] = test compound 10 mg/kg alone, 10 mg/kg
# [4] = test compound 30 mg/kg + scopolamine 0.8 mg/kg
SMILES,Acetylcholinesterase activity in the presence of compound (acetylcholinesterase; compound concentration 10 μM),Acetylcholinesterase activity in the presence of compound (acetylcholinesterase; compound concentration 1.0 mM),"passive avoidance latency, Test cpd. + scopolamine [1, 2]","passive avoidance latency, Test cpd. + scopolamine [1, 4]",Acetylcholinesterase activity in the presence of compound (acetylcholinesterase; compound concentration 100 nM),other results
O[C@@H]1c2ccccc2CN2CCC[C@@H]12 (relative stereo),–,–,–,–,–,melting point: 131 to 133 °C
"CN[C@@H]1c2ccccc2CN2CCCC[C@H]12 (relative stereo) [Example 9, trans-N-Methyl-1,3,4,6,11,11a-hexahydro-11-amino-2H-benzo[b]quinolizine]",2.00 mM substrate hydrolyzed/min/100 μg protein,0.30 mM substrate hydrolyzed/min/100 μg protein,104 ± 48 (12) seconds,258 ± 156 (5) seconds,–,"passive avoidance latency, Test cpd. alone [1, 3]: 459 ± 53 (12) seconds; passive avoidance latency, Test cpd. alone ([1]; test compound 30 mg/kg alone): 529 ± 78 (6) seconds; passive avoidance latency, Test cpd. + scopolamine ([1]; test compound 45 mg/kg + scopolamine 0.8 mg/kg): 322 ± 112 (8) seconds; passive avoidance latency, Test cpd. alone ([1]; test compound 45 mg/kg alone): 340 ± 146 (5) seconds"
"CN[C@@H]1c2ccccc2CN2CCCC[C@H]12 (relative stereo) [Example 9a, trans-N-Methyl-1,3,4,6,11,11a-hexahydro-11-amino-2H-benzo[b]quinolizine]",–,–,216 ± 260 (2) seconds,–,–,"passive avoidance latency, Test cpd. alone [1, 3]: 328 ± 177 (3) seconds"
"CN[C@@H]1c2cc(OC)ccc2CN2CCCC[C@H]12 (relative stereo) [Example 10, trans-N-Methyl-9-methoxy-1,3,4,6,11,11a-hexahydro11-amino-2H-benzo[b]quinolizine]",–,–,054 ± 20 (6) seconds,–,–,"passive avoidance latency, Test cpd. alone ([1]; test compound 10 mg/kg alone): 592 ± 9 (6) seconds"
"c1ccc(CN[C@@H]2c3ccccc3CN3CCCC[C@H]23)cc1 (relative stereo) [Example 13, trans-N-Benzyl-1,3,4,6,11,11a-hexahydro-11-amino-2H-benzo[b]quinolizine]",1.90 mM substrate hydrolyzed/min/100 μg protein,0.20 mM substrate hydrolyzed/min/100 μg protein,048 ± 14 (5) seconds,–,2.30 mM substrate hydrolyzed/min/100 μg protein,"passive avoidance latency, Test cpd. alone ([1]; test compound 10 mg/kg alone): 410 ± 115 (6) seconds"
"COc1ccc2c(c1)[C@@H](NCc1ccccc1)[C@H]1CCCCN1C2 (relative stereo) [Example 14, trans-N-Benzyl-9-methoxy-1,3,4,6,11,11a-hexahydro-11-amino-2H benzo[b]quinolizine]",–,–,–,211 ± 238 (3) seconds,–,–
"N[C@@H]1c2ccccc2CN2CCCC[C@H]12 (relative stereo) [Example 15, trans-1,3,4,6,11,11a-Hexahydro-11-amino-2H-benzo[b]quinolizine]",2.00 mM substrate hydrolyzed/min/100 μg protein,0.20 mM substrate hydrolyzed/min/100 μg protein,148 ± 101 (5) seconds,132 ± 103 (6) seconds,2.20 mM substrate hydrolyzed/min/100 μg protein,"passive avoidance latency, Test cpd. alone ([1]; test compound 10 mg/kg alone): 292 ± 92 (6) seconds; passive avoidance latency, Test cpd. alone ([1]; test compound 30 mg/kg alone): 188 ± 102 (6) seconds"
"CN[C@@H]1c2ccccc2CN2CCCC[C@@H]12 (relative stereo) [Example 17, cis-N-methyl-1,3,4,6,11,11a-hexahydro-2H-benzo[b]quinolizidin-11-amine]",1.90 mM substrate hydrolyzed/min/100 μg protein,0.80 mM substrate hydrolyzed/min/100 μg protein,–,–,2.00 mM substrate hydrolyzed/min/100 μg protein,–
"O[C@@H]1c2ccccc2CN2CCCC[C@@H]12 (relative stereo) [Example 18a, cis-1,3,4,6,11,11a-hexahydro-2H-benzo[b]quinolizidin-11-ol]",2.10 mM substrate hydrolyzed/min/100 μg protein,1.70 mM substrate hydrolyzed/min/100 μg protein,–,–,2.30 mM substrate hydrolyzed/min/100 μg protein,–
"O[C@@H]1c2ccccc2CN2CCCC[C@H]12 (relative stereo) [Example 18b, trans-1,3,4,6,11,11a-hexahydro-2H-benzo[b]quinolizidin-11-ol]",1.90 mM substrate hydrolyzed/min/100 μg protein,1.00 mM substrate hydrolyzed/min/100 μg protein,–,–,2.50 mM substrate hydrolyzed/min/100 μg protein,–
"CC(=O)O[C@@H]1c2ccccc2CN2CCCC[C@@H]12 (relative stereo) [Example 19, O-acetyl-cis-1,3,4,6,11,11a-hexahydro-2H-benzo[b]quinolizidin-11-ol]",1.90 mM substrate hydrolyzed/min/100 μg protein,0.70 mM substrate hydrolyzed/min/100 μg protein,–,–,2.20 mM substrate hydrolyzed/min/100 μg protein,–
"CC(=O)O[C@@H]1c2ccccc2CN2CCCC[C@H]12 (relative stereo) [Example 20, O-acetyl-trans-1,3,4,6,11,11a-hexahydro-2H-benzo[b]quinolizidin-11-ol]",1.40 mM substrate hydrolyzed/min/100 μg protein,0.30 mM substrate hydrolyzed/min/100 μg protein,–,–,2.10 mM substrate hydrolyzed/min/100 μg protein,–
"CN[C@@H]1c2ccccc2CN2C(=O)CC[C@@H]12 (relative stereo) [Example 26b, cis-10Methylamino-1,2,3,5,10,10a-hexahydropyrrolo[1,2b]isoquinolin-3-one]",–,–,–,182 ± 163 (4) seconds,–,"passive avoidance latency, Test cpd. alone ([1]; test compound 30 mg/kg alone): 600 (3) seconds"
"CN[C@@H]1c2ccccc2CN2CCC[C@@H]12 (relative stereo) [Example 34a, cis-10-methylamino-1,2,3,5,10,10a-hexahydropyrrolo[1,2-b]isoquinoline]",–,–,–,534 ± 76 (3) seconds,–,"passive avoidance latency, Test cpd. alone ([1]; test compound 30 mg/kg alone): 559 ± 50 (3) seconds"
